Data reported in US8802597B2, “Herbicidal pyrimidines” (E I du Pont de Nemours and Company, priority 2003, dated 2014).
Where two headings read alike, the source gives them in different places.

Experiments:
Assay in all cases: Test C pre/postemergence
Assay type in all cases: in vivo
[1] = tested on: kochia (Kochia scoparia); details: Bassia scoparia; for pest or weed control at 62 g/ha: 62 g ai/ha; for pest or weed control at 125 g/ha: 125 g ai/ha; for pest or weed control at 250 g/ha: 250 g ai/ha; for pest or weed control at 500 g/ha: 500 g ai/ha; for pest or weed control at 31 g/ha: 31 g ai/ha
Text: (§1) Seeds or nutlets of plant species selected from bermudagrass (Cynodon dactylon), Surinam grass (Brachiaria decumbens), cocklebur (Xanthium strumarium), corn (Zea mays), crabgrass (Digitaria sanguinalis), woolly cupgrass (Eriochloa villosa), giant foxtail (Setaria faberii), goosegrass (Eleusine indica), johnsongrass (Sorghum halepense), kochia (Kochia scoparia), lambsquarters (Chenopodium album), morningglory (Ipomoea coccinea), eastern black nightshade (Solanum ptycanthum), yellow nutsedge (Cyperus esculentus), pigweed (Amaranthus retroflexus), common ragweed (Ambrosia elatior), soybean (Glycine max), common (oilseed) sunflower (Helianthus annuus), and velvetleaf (Abutilon theophrasti) were planted and treated preemergence with test chemicals formulated in a non-phytotoxic solvent mixture which included a surfactant.
(§2) At the same time, plants selected from these crop and weed species and also winter barley (Hordeum vulgare), blackgrass (Alopecurus myosuroides), canarygrass (Phalaris minor), chickweed (Stellaria media), downy brome (Bromus tectorum), green foxtail (Setaria viridis), Italian ryegrass (Lolium multiflorum), wheat (Triticum aestivum), wild oat (Avena fatua) and windgrass (Apera spica-venti) were treated with postemergence applications of some of the test chemicals formulated in the same manner. Plants ranged in height from 2 to 18 cm (1- to 4-leaf stage) for postemergence treatments. Plant species in the flooded paddy test consisted of rice (Oryza sativa), umbrella sedge (Cyperus difformis), duck salad (Heteranthera limosa) and barnyardgrass (Echinochloa crus-galli) grown to the 2-leaf stage for testing. Treated plants and controls were maintained in a greenhouse for 12 to 14 days, after which time all species were compared to controls and visually evaluated. Plant response ratings, summarized in Table C, are based on a scale of 0 to 100 where 0 is no effect and 100 is complete control. A dash (-) response means no test result.

[2] = tested on: cocklebur (Xanthium strumarium); details: Xanthium strumarium; for pest or weed control at 62 g/ha: 62 g ai/ha; for pest or weed control at 125 g/ha: 125 g ai/ha; for pest or weed control at 250 g/ha: 250 g ai/ha; for pest or weed control at 500 g/ha: 500 g ai/ha; for pest or weed control at 31 g/ha: 31 g ai/ha
Text: as §1, §2

[3] = tested on: johnsongrass (Sorghum halepense); details: Sorghum halepense; for pest or weed control at 62 g/ha: 62 g ai/ha; for pest or weed control at 125 g/ha: 125 g ai/ha; for pest or weed control at 250 g/ha: 250 g ai/ha; for pest or weed control at 500 g/ha: 500 g ai/ha; for pest or weed control at 31 g/ha: 31 g ai/ha
Text: as §1, §2

[4] = tested on: pigweed (Amaranthus retroflexus); details: Amaranthus retroflexus; for pest or weed control at 62 g/ha: 62 g ai/ha; for pest or weed control at 125 g/ha: 125 g ai/ha; for pest or weed control at 250 g/ha: 250 g ai/ha; for pest or weed control at 500 g/ha: 500 g ai/ha; for pest or weed control at 31 g/ha: 31 g ai/ha
Text: as §1, §2

[5] = tested on: crabgrass (Digitaria sanguinalis); details: Digitaria sanguinalis; for pest or weed control at 62 g/ha: 62 g ai/ha; for pest or weed control at 125 g/ha: 125 g ai/ha; for pest or weed control at 250 g/ha: 250 g ai/ha; for pest or weed control at 500 g/ha: 500 g ai/ha; for pest or weed control at 31 g/ha: 31 g ai/ha
Text: as §1, §2

[6] = post-emergence, Postemergence, scale 0 to 100 (0 no effect, 100 complete control), read-out: Kochia plant response rating
[7] = post-emergence, Postemergence, scale 0 to 100, read-out: Plant response rating, Kochia
[8] = pre-emergence, Preemergence, scale 0 to 100, 0 no effect, 100 complete control, read-out: Plant response rating, Kochia
[9] = pre-emergence, Preemergence, scale 0 to 100, read-out: Plant response rating, Kochia
[10] = post-emergence, Postemergence, scale 0 to 100 (0 no effect, 100 complete control), read-out: Cocklebur plant response rating
[11] = post-emergence, Postemergence, scale 0 to 100, read-out: Plant response rating, Cocklebur
[12] = pre-emergence, Preemergence, scale 0 to 100, read-out: Plant response rating, Cocklebur
[13] = post-emergence, Postemergence, scale 0 to 100 (0 no effect, 100 complete control), read-out: Johnsongrass plant response rating
[14] = post-emergence, Postemergence, scale 0 to 100, read-out: Plant response rating, Johnsongrass
[15] = pre-emergence, Preemergence, scale 0 to 100, 0 no effect, 100 complete control, read-out: Plant response rating, Johnsongrass
[16] = pre-emergence, Preemergence, scale 0 to 100, read-out: Plant response rating, Johnsongrass
[17] = post-emergence, Postemergence, scale 0 to 100 (0 no effect, 100 complete control), read-out: Pigweed plant response rating
[18] = post-emergence, Postemergence, scale 0 to 100, read-out: Plant response rating, Pigweed
[19] = pre-emergence, Preemergence, scale 0 to 100, 0 no effect, 100 complete control, read-out: Plant response rating, Pigweed
[20] = pre-emergence, Preemergence, scale 0 to 100, read-out: Plant response rating, Pigweed
[21] = post-emergence, Postemergence, scale 0 to 100 (0 no effect, 100 complete control), read-out: Crabgrass plant response rating
[22] = post-emergence, Postemergence, scale 0 to 100, read-out: Plant response rating, Crabgrass
[23] = pre-emergence, Preemergence, scale 0 to 100, 0 no effect, 100 complete control, read-out: Plant response rating, Crabgrass
[24] = pre-emergence, Preemergence, scale 0 to 100, read-out: Plant response rating, Crabgrass
[25] = pre-emergence, Preemergence, scale 0 to 100, 0 no effect, 100 complete control, read-out: Plant response rating, Cocklebur

Row | SMILES | pest or weed control at 62 g/ha [1, 6] [%] | pest or weed control at 125 g/ha [1, 6] [%] | pest or weed control at 250 g/ha [1, 7] [%] | pest or weed control at 62 g/ha [1, 8] [%] | pest or weed control at 125 g/ha [1, 9] [%] | pest or weed control at 250 g/ha [1, 9] [%] | pest or weed control at 62 g/ha [2, 10] [%] | pest or weed control at 125 g/ha [2, 10] [%] | pest or weed control at 250 g/ha [2, 11] [%] | pest or weed control at 125 g/ha [2, 12] [%] | pest or weed control at 250 g/ha [2, 12] [%] | pest or weed control at 62 g/ha [3, 13] [%] | pest or weed control at 125 g/ha [3, 13] [%] | pest or weed control at 250 g/ha [3, 14] [%] | pest or weed control at 62 g/ha [3, 15] [%] | pest or weed control at 125 g/ha [3, 16] [%] | pest or weed control at 250 g/ha [3, 16] [%] | pest or weed control at 62 g/ha [4, 17] [%] | pest or weed control at 125 g/ha [4, 17] [%] | pest or weed control at 250 g/ha [4, 18] [%] | further results
1 | Nc1nc(C2CC2)nc(C(=O)O)c1Br [Compound 8] | 95 | 100 | 100 | 50 | 85 | 100 | 80 | 100 | 100 | 85 | 100 | 30 | 35 | 45 | 0 | 0 | 0 | 70 | 75 | 100 | pest or weed control at 500 g/ha [1, 7]: 100%; pest or weed control at 500 g/ha [1, 9]: 100%; pest or weed control at 500 g/ha [2, 11]: 100%; pest or weed control at 500 g/ha [2, 12]: 100%; pest or weed control at 500 g/ha [3, 14]: 85%; pest or weed control at 500 g/ha [3, 16]: 20%; pest or weed control at 500 g/ha [4, 18]: 100%; pest or weed control at 62 g/ha [4, 19]: 65%; pest or weed control at 125 g/ha [4, 20]: 85%; pest or weed control at 250 g/ha [4, 20]: 90%; pest or weed control at 500 g/ha [4, 20]: 95%; pest or weed control at 62 g/ha [5, 21]: 60%; pest or weed control at 125 g/ha [5, 21]: 65%; pest or weed control at 250 g/ha [5, 22]: 70%; pest or weed control at 500 g/ha [5, 22]: 75%; pest or weed control at 62 g/ha [5, 23]: 0%; pest or weed control at 125 g/ha [5, 24]: 0%; pest or weed control at 250 g/ha [5, 24]: 0%; pest or weed control at 500 g/ha [5, 24]: 0%
2 | COC(=O)c1nc(C2CC2)nc(N)c1Cl [Compound 9, methyl 6-amino-5-chloro-2-cyclopropyl-4-pyrimidinecarboxylate] | 100 | 100 | 100 | 95 | 100 | 100 | 85 | 100 | 100 | 100 | 100 | 65 | 80 | 85 | 45 | 65 | 90 | 70 | 100 | 100 | pest or weed control at 31 g/ha ([1]; post-emergence, Postemergence, read-out: Plant response rating (scale of 0 to 100), Kochia): 95%; pest or weed control at 31 g/ha [1, 8]: 95%; pest or weed control at 31 g/ha ([2]; post-emergence, Postemergence, read-out: Plant response rating (scale of 0 to 100), Cocklebur): 40%; pest or weed control at 31 g/ha [2, 25]: 75%; pest or weed control at 62 g/ha [2, 25]: 80%; pest or weed control at 31 g/ha ([3]; post-emergence, Postemergence, read-out: Plant response rating (scale of 0 to 100), Johnsongrass): 55%; pest or weed control at 31 g/ha [3, 15]: 15%; pest or weed control at 31 g/ha ([4]; post-emergence, Postemergence, read-out: Plant response rating (scale of 0 to 100), Pigweed): 55%; pest or weed control at 31 g/ha [4, 19]: 95%; pest or weed control at 62 g/ha [4, 19]: 95%; pest or weed control at 125 g/ha [4, 20]: 100%; pest or weed control at 250 g/ha [4, 20]: 100%; pest or weed control at 31 g/ha ([5]; post-emergence, Postemergence, read-out: Plant response rating (scale of 0 to 100), Crabgrass): 60%; pest or weed control at 62 g/ha [5, 21]: 70%; pest or weed control at 125 g/ha [5, 21]: 75%; pest or weed control at 250 g/ha [5, 22]: 80%; pest or weed control at 31 g/ha [5, 23]: 20%; pest or weed control at 62 g/ha [5, 23]: 95%; pest or weed control at 125 g/ha [5, 24]: 95%; pest or weed control at 250 g/ha [5, 24]: 100%
